Assay [1] addresses T1, CCK receptor (brain, cerebral cortex) (Cavia porcellus, UniProt H0VZC5).
T1 construct: Cerebral cortex was dissected and used as a receptor source; from tissue; host or cells: guinea pig cerebral cortex membranes (male Hartley)
T1 sequence (H0VZC5 1-426): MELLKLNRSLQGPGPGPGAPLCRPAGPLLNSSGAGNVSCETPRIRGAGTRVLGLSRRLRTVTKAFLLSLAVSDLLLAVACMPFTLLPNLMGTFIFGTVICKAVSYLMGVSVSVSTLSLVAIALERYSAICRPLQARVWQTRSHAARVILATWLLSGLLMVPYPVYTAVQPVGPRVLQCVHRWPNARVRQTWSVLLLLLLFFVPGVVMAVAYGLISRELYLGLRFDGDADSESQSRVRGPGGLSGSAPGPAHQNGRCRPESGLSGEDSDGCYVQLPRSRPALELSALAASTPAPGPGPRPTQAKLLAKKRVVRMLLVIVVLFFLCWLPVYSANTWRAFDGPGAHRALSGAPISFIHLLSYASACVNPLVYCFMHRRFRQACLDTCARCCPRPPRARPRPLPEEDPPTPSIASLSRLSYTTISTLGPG
As to the kind of experiment: biochemical. Format: binding, Male Hartley guinea pigs. How it is done:
2. CCK Recepto Binding (Brain)
CCK-33 was radiolabeled and the binding was Performed according to the description for the Pancreas method with modifications according to Saito et al., J. Neurochem.
Cerebral cortex was dissected and used as a receptor source. Each gram of fresh guinea pig brain tissue was homogenized in 10 ml of Tris/Trizma buffer with a Brinkman polytron PT-10. The homogenates were centrifuged at 42,000 g for 15 minutes. Pellets were resuspended in Tris Buffer, centrifuged as above and resuspended in 200 volumes of binding assay buffer (10 mM N-2-hydroxyethyl-piperazine-N'-2-ethane sulfonic acid (HEPES), 5 mM MgCl2, 0.25 mg/ml bacitracin, 1 mM ethylene glycol-bis-(β-aminoethylether-N,N'-tetraacetic acid) (EGTA), and 0.4% bovine serum albumin (BSA)). […] All assays were run in duplicate or triplicate. The reaction mixtures were incubated at 25° C. for 2 hours and centrifuged in a Beckman Microfuge (4 minutes) immediately after adding 1 ml of ice-cold incubation buffer. The supernatant was aspirated and discarded, pellets were counted with a Beckman gamma 5000.

The target in assay [2] is T2, Gastrin receptor (gastric glands) (Cavia porcellus, UniProt H0VZC5).
T2 construct: The washed guinea pig gastric glands prepared as above were resuspended; from tissue; host or cells: guinea pig gastric mucosal glands (male Hartley)
T2 sequence (H0VZC5 1-426): T1 sequence (H0VZC5 1-426)
The assay is described as follows: Gastrin Receptor Binding in Guinea Pig Gastric Glands. Details: species or system guinea pig (male Hartley).

[3] abbreviates: guinea pig cerebral cortex, ^125 I-CCK-33, 25° C., 2 hours; read-out: IC50 ^125 I-CCK Brain.
Where [4] appears, read: ^125 I-gastrin, 25° C., 30 minutes, read-out: IC50 ^125 I-Gastrin Gastric Glands.
Setting [5] is: IC50 ^125 I-CCK Brain, guinea pig cerebral cortex, ^125 I-CCK-33, 25° C., 2 hours.
Setting [6] is: IC50 ^125 I-Gastrin Gastric Glands, 25° C., 30 minutes.

Read-outs that look alike come from different tables or passages of the source.

On to `O=C(C=Cc1ccccc1)NC1N=C(c2ccccc2F)c2ccccc2NC1=O` (racemic) [Example 121, 3-(RS)-Cinnamoylamino-1,3-dihydro-5-(2-fluorophenyl)-2H-1,4-benzodiazepin-2-one], for which the IC50 in assay [1] (setting [3]) amounted to 5.5 µM; in assay [2] (setting [4]) it was 3.8 µM.

As for `CN(C)c1ccc(C(=O)NC2N=C(c3ccccc3F)c3ccccc3NC2=O)cc1` (racemic) [Example 152, 1,3-Dihydro-3(RS)-(p-dimethylaminobenzoylamino)-5-(2-fluorophenyl)-2H-1,4-benzodiazepin-2-one], the IC50 in assay [1] (setting [5]) and in assay [2] (setting [6]) was greater than 100 µM in each case.

Consider `COc1ccc2[nH]c(C(=O)NC3N=C(c4ccccc4F)c4ccccc4NC3=O)cc2c1` (racemic) [Example 126, 1,3-Dihydro-3-(RS)-(5-methoxyindole-2-carbonylamino)-5-(2-fluorophenyl)-2H-1,4-benzodiazepin-2-one], for which the values for the IC50 in assay [1] (setting [5]) and in assay [2] (setting [6]) were 29 µM and greater than 10 µM, respectively.

As to `O=C(NC1N=C(c2ccccc2F)c2ccccc2NC1=O)c1ccc[nH]1` (racemic) [Example 158, 1,3-Dihydro-5-(2-fluorophenyl)-3(RS)-(pyrrole-2-carbonylamino)-2H-1,4-benzodiazepin-2-one], the IC50 worked out at 100 µM in assay [1] (setting [5]) and 25 µM in assay [2] (setting [6]).

With `O=C(NC1N=C(c2ccccc2F)c2ccccc2NC1=O)c1cc2cc(Br)ccc2[nH]1` (racemic) [Example 120, 1,3-Dihydro-3-(RS)-(5-Bromoindole-2-carbonylamino)-5-(2-fluorophenyl)-2H-1,4-benzodiazepin-2-one], the IC50 in assay [1] (setting [5]) was 50 µM; in assay [2] (setting [6]), greater than 10 µM.

For the compound `CN1C(=O)[C@@H](NC(=O)[C@@H](Cc2ccccc2)NC(=O)OC(C)(C)C)N=C(c2ccccc2F)c2ccccc21` [Example 232, (S-(R*,S*))-(2-((5-(2-Fluorophenyl)-2,3-dihydro-1-methyl-2-oxo-1H-1,4-benzodiazepin-3-yl)amino)-2-oxo-1-(phenylmethyl)ethyl)-carbamic acid 1,1-dimethylethyl ester], the IC50 in assay [1] (setting [3]) was 1 µM; in assay [2] (setting [4]), 1.2 µM.

`O=C1Nc2ccccc2C(c2ccccc2)=NC1NCCc1c[nH]c2ccccc12` (racemic) [Example 74, 1,3-Dihydro-3(RS)-[2-(3-indolyl)ethyl]amino-5-phenyl-2H-1,4-benzodiazepin-2-one]: the IC50 was 100 µM in assay [1] (setting [5]) and greater than 100 µM in assay [2] (setting [6]).

As to `CN1C(=O)C(NC(=O)[C@H](Cc2ccccc2)NC(=O)OC(C)(C)C)N=C(c2ccccc2)c2ccccc21` (mixture of isomers) [Example 83, 3(RS)-(2(S)-tert-Butoxycarbonylamino-3-phenylpropanoyl-amino)-1,3-dihydro-1-methyl-5-phenyl-2H-1,4-benzodi-azepin-2-one], the IC50 was determined as 13 µM in assay [1] (setting [3]) and 26 µM in assay [2] (setting [4]).

With `O=C(NC1N=C(c2ccccc2F)c2ccccc2NC1=O)c1ccsc1` (racemic) [Example 108, 1,3-Dihydro-5-(2-fluorophenyl)-3-(RS)-(3-thiophenecarbonylamino)-2H-1,4-benzodiazepin-2-one], the IC50 was greater than 50 µM in assay [1] (setting [5]) and greater than 10 µM in assay [2] (setting [6]).

As for `CC(C)(C)c1ccc(C(=O)NC2N=C(c3ccccc3)c3ccccc3NC2=O)cc1` (racemic) [Example 146, 1,3-Dihydro-3-(RS)-(4'-tert-butylbenzoylamino)-5-phenyl-2H-1,4-benzodiazepin-2-one], the IC50 in assay [1] (setting [5]) worked out at 100 µM; in assay [2] (setting [6]), 40 µM.

In the case of `O=C1Nc2ccccc2C(c2ccccc2F)=NC1CNCC1N=C(c2ccccc2F)c2ccccc2NC1=O` (racemic) [Example 69, 1,3-Dihydro-3'-(RS)-[3'-(RS)-(1,3-dihydro-5-(2'-fluorophenyl)-2H-1,4-benzodiazepin-2-one)-3-yl]methylaminomethyl-5-(2'-fluorophenyl)-2H-1,4-benzodiazepin-2-one], the IC50 in assay [1] (setting [5]) was greater than 100 µM; in assay [2] (setting [6]), 350 µM.

On to `CN1C(=O)[C@H](NC(=O)[C@@H](N)Cc2ccccc2)N=C(c2ccccc2)c2ccccc21` [Example 84b, 3(R)-(2(S)-amino-3-phenylpropanoylamino)-1,3-dihydro-1-methyl-5-phenyl-2H-1,4-benzodiazepin-2-one], for which the 50% inhibitory concentration (IC50) in assay [1] (setting [5]) is greater than 100 µM; in assay [2] (setting [4]) it was 55 µM.

In the case of `O=C(O)CN1C(=O)C(NC(=O)c2cc3ccccc3[nH]2)N=C(c2ccccc2F)c2ccccc21` (racemic) [Example 113, 1-Carboxymethyl-1,3-dihydro-5-(2-fluorophenyl)-3(RS)-(2-indolecarbonylamino)-2H-1,4-benzodiazepin-2-one], the IC50 came out at 5.6 µM in assay [1] (setting [5]) and 0.39 µM in assay [2] (setting [6]).

For `O=C(NC1N=C(c2ccccc2F)c2ccccc2NC1=O)c1ccc(C(F)(F)F)cc1` (racemic) [Example 134, 1,3-Dihydro-5-(2-fluorophenyl)-3-(RS)-(p-trifluoro-methylbenzoylamino)-2H-1,4-benzodiazepin-2-one], the IC50 was found to be 40 µM in assay [1] (setting [5]) and 9.5 µM in assay [2] (setting [6]).

On to `O=C(CCCc1c[nH]c2ccccc12)NC1N=C(c2ccccc2)c2ccccc2NC1=O` (racemic) [Example 97, 3(RS)-[4-(3-Indole)butyrylamino]-1,3-dihydro-5-phenyl-2H-1,4-benzodiazepin-2-one], for which the IC50 is greater than 100 µM in assay [1] (setting [5]) and 200 µM in assay [2] (setting [6]).

For the compound `Cn1c(C(=O)NC2N=C(c3ccccc3F)c3ccccc3NC2=O)cc2ccccc21` (racemic) [Example 127, 1,3-Dihydro-3-(RS)-(1-methylindole-2-carbonylamino)-5-(2-fluorophenyl)-2H-1,4-benzodiazepine-2-one], the values for the IC50 in assay [1] (setting [5]) and in assay [2] (setting [6]) were 7 µM and 6.3 µM, respectively.

Take `O=C(NCC1CNc2ccccc2C(c2ccccc2F)=N1)c1cc2ccccc2[nH]1` (racemic) [Example 100, 1,3-Dihydro-3(RS)-(2'-indolecarbonyl)aminomethyl-5-(2-fluorophenyl)-2H-1,4-benzodiazepine]: the IC50 in assay [1] (read-out: IC50 ^125 I-CCK Brain; guinea pig cerebral cortex, ^125 I-CCK-33, 25° C., 2 hours) amounted to 34 µM; in assay [2] (read-out: IC50 ^125 I-Gastrin Gastric Glands, 25° C., 30 minutes) it was 22 µM.

Consider `O=C(NC1N=C(c2ccccc2F)c2ccccc2NC1=O)c1cc2cc(Cl)ccc2[nH]1` (racemic) [Example 118, 1,3-Dihydro-3-(RS)-(5-Chloroindole-2-carbonylamino)-5-(2-fluorophenyl)-2H-1,4-benzodiazepin-2-one], for which the results for the IC50 in assay [1] (setting [5]) and in assay [2] (setting [6]) were 38 µM and greater than 10 µM, respectively.

As for `CN1C(=O)[C@@H](NC(=O)C=Cc2ccccc2)N=C(c2ccccc2)c2ccccc21` [Example 192, (S)-N-(2,3-Dihydro-1-methyl-2-oxo-5-phenyl-1H-1,4-benzodiazeoin-3-yl)-3-phenyl-2-propenamide], the IC50 in assay [1] (setting [3]) came out at 0.64 µM; in assay [2] (setting [4]), 0.18 µM.

As to `O=C(NC1N=C(c2ccccc2)c2ccccc2NC1=O)c1ccccc1Cl` (racemic) [Example 137, 3-(RS)-(o-Chlorobenzoylamino)-1,3-dihydro-5-phenyl-2H-1,4-benzodiazepin-2-one], the IC50 in assay [1] (setting [5]) was greater than 40 µM; in assay [2] (setting [6]), 52 µM.

`CN1C(=O)[C@@H](NC(=O)[C@@H](N)Cc2ccccc2)N=C(c2ccccc2)c2ccccc21` [Example 84a, 3(S)-(2(S)-amino-3-phenylpropanoylamino)-1,3-dihydro-1-methyl-5-phenyl-2H-1,4-benzodiazepin-2-one]: the IC50 in assay [1] (setting [5]) and in assay [2] (setting [4]) was greater than 40 µM throughout.

With `O=C(NC1N=C(c2ccccc2)c2ccccc2NC1=O)c1ccc(C(F)(F)F)cc1` (racemic) [Example 145, 1,3-Dihydro-5-Phenyl-3-(RS)-(4'-trifluoromethylbenzoylamino)-2H-1,4-benzodiazepin-2-one], the IC50 in assay [1] (setting [5]) turned out to be 65 µM; in assay [2] (setting [6]) it was 36 µM.

As for `O=C(NCC1N=C(c2ccccc2F)c2ccccc2NC1=O)c1ccsc1` (racemic) [Example 67, 1,3-Dihydro-5-(2'-fluorophenyl)-3(RS)-(3-thiophene-carbonyl)aminomethyl-2H-1,4-benzodiazepin-2-one], the IC50 in assay [1] (setting [5]) was 100 µM; in assay [2] (setting [6]), 47 µM.

For the compound `CN(C(=O)c1cc2ccccc2[nH]1)C1N=C(c2ccccc2)c2ccccc2NC1=O` (racemic) [Example 119, 3-(RS)-[N-(2-indolecarbonyl)-N-methylamino]-1,3-dihydro-5-phenyl-2H-1,4-benzodiazepin-2-one], the results for the IC50 in assay [1] (setting [5]) and in assay [2] (setting [6]) were 33 µM and greater than 10 µM, respectively.

By IC50 is commonly meant the concentration that gives 50% inhibition.
